Numbered stars: 1 amine (or outer) side, 2 acyl side, 3 side chain; on linkers, the order of the positions; unused ones are H or OH. Bridge positions count the residues as written; N and C are the ends. Square brackets hold non-standard residues; d marks the D form. Peptide text beside a SMILES is read from it. * marks the point of attachment. C20 diacid = O=C(O)CCCCCCCCCCCCCCCCCCC(=O)*; γGlu = O=C(O)[C@H](CCC(=O)[*:2])N[*:1]; NMeI = CC[C@H](C)[C@H](NC)C(=O)O; Sar = CNCC(=O)O
Assays:
[1] = Solubility assessment (turbidity absorbance at 325 nm); format: physicochemical; details: stock 2 mg/ml diluted 1:1, ambient temperature (typically 25°C), n=1; for Solubility, Acetate buffer pH 4: 100 mM acetate buffer pH 4.0; for Solubility, Acetate buffer pH 5: 100 mM acetate buffer pH 5.0; for Solubility, Histidine buffer pH 6: 100 mM histidine buffer pH 6.0; for Solubility, Histidine buffer pH 7: 100 mM histidine buffer pH 7.0; for Solubility, Phosphate buffer pH 6: 100 mM phosphate buffer pH 6.0; for Solubility, Phosphate buffer pH 7: 100 mM phosphate buffer pH 7.0; for Solubility, Phosphate buffer pH 7.5: 100 mM phosphate buffer pH7.5
Procedure, shortened: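 Stock 2 mg/ml peptide, H2O/HCl pH 2.5; 1:1 into 100 mM buffers: acetate pH 4.0/5.0, His pH 6.0/7.0, phosphate pH 6.0/7.0/7.5. A280 + A325, ~25°C, n=1. Soluble ≥ 1 mg/ml if A325 ≤ 0.02.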

[2] = molecular target: T1, human calcitonin receptor (hCTR2) (Homo sapiens, UniProt P30988); assay: hCTR2 assay: induction of cAMP (AlphaScreen cAMP Assay kit) in COS7 cells expressing hCTR2; format: cell-based; details: cAMP induction in COS7 cells expressing hCTR2; average of a minimum of 3 determinations; read-out: hCTR2 EC50
T1 construct: expressed in transfected cells
T1 sequence (P30988 25-474): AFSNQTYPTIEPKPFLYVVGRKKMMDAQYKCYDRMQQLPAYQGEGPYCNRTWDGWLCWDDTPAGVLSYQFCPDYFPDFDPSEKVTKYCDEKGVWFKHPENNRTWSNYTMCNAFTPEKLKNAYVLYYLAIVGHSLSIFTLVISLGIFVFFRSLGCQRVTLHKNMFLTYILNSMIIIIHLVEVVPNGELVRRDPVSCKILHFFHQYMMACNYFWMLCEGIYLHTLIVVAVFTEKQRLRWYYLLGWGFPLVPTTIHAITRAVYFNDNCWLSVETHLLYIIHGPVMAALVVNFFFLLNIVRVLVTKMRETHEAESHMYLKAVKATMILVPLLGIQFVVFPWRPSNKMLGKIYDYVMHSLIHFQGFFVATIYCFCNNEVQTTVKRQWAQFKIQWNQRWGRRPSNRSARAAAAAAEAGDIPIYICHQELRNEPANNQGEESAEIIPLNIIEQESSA
Procedure, shortened: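 Functional agonism is measured as cAMP accumulation in a COS7 line stably transfected with hCTR2, lacking endogenous RAMPs. Peptides act for 15 min at 37° C with IBMX present, and curves are fitted with a 4-parameter logistic model.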

[3] = molecular target: T2, human amylin receptor 3 (hAMYR3) consisting of hCTR2 co-expressed with human Receptor Activity Modifying Protein 3 (hRAMP3) (Homo sapiens, UniProt O60896+P30988); assay: hAMYR3 assay: induction of cAMP (AlphaScreen cAMP Assay kit) in COS7 cells expressing hAMYR3; format: cell-based; details: cAMP induction in COS7 cells expressing hAMYR3; average of a minimum of 3 determinations; read-out: hAMY R3 EC50
T2 construct: expressed in transfected cells
T2 sequence (P30988 25-474): T1 sequence (P30988 25-474)
T2 sequence (O60896 24-148 partner): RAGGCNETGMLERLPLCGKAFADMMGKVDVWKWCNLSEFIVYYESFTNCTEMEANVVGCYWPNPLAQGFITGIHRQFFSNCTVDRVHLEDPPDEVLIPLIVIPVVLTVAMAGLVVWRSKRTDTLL
Procedure, shortened: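 Stable COS7 clone co-expressing hCTR2 and hRAMP3, stimulated 15 min at 37° C with increasing peptide in Tyrode buffer pH 7.4 with 100 µM IBMX and 0.1% casein. cAMP measured by AlphaScreen after lysis; EC50 and % efficacy versus pramlintide from 4PL fit.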

Row | Structure (SMILES) | Solubility, Acetate buffer pH 4 [1] | Solubility, Acetate buffer pH 5 [1] | Solubility, Histidine buffer pH 6 [1] | Solubility, Histidine buffer pH 7 [1] | Solubility, Phosphate buffer pH 6 [1] | Solubility, Phosphate buffer pH 7 [1] | Solubility, Phosphate buffer pH 7.5 [1] | EC50 [2] [nM] | EC50 [3] [nM]
1 | CC[C@H](C)[C@@H](C(=O)N[C@@H](CC(C)C)C(=O)N[C@@H](CO)C(=O)N[C@@H](CO)C(=O)N[C@H](C(=O)N[C@@H](CCC(=O)O)C(=O)N[C@H](C(=O)NCC(=O)N[C@@H](CO)C(=O)N[C@@H](CCC(=O)O)C(=O)N[C@H](C(=O)N1CCC[C@H]1C(N)=O)[C@@H](C)O)C(C)C)[C@@H](C)O)N(C)C(=O)[C@H](C)NC(=O)CN(C)C(=O)[C@H](Cc1ccccc1)NC(=O)[C@H](CO)NC(=O)[C@H](CO)NC(=O)[C@H](CO)NC(=O)[C@H](CO)NC(=O)[C@H](CCCNC(=N)N)NC(=O)[C@H](Cc1c[nH]cn1)NC(=O)[C@H](CC(C)C)NC(=O)[C@H](Cc1ccccc1)NC(=O)[C@H](CCC(=O)O)NC(=O)[C@H](C)NC(=O)[C@H](CC(C)C)NC(=O)[C@H](CCCNC(=N)N)NC(=O)[C@H](CCC(=O)O)NC(=O)[C@@H](NC(=O)[C@H](C)NC(=O)[C@@H]1CSSC[C@H](NC(=O)[C@H](CCCNC(=N)N)NC(=O)CC[C@H](NC(=O)CCCCCCCCCCCCCCCCCCC(=O)O)C(=O)O)C(=O)N[C@@H](CO)C(=O)N[C@@H]([C@@H](C)O)C(=O)N[C@@H](C)C(=O)N[C@@H]([C@@H](C)O)C(=O)N1)[C@@H](C)O [Compound 135, [19CD]-isoGlu-RC()STATC()ATERLAEFLHRSSSSF-Gly(Me)-A-Ile(Me)-LSSTEVGSETP-NH2] ({C20 diacid-γGlu}-RCSTATCATERLAEFLHRSSSSF[Sar]A[NMeI]LSSTEVGSETP-NH2; disulfide 2-7) | SS (SS indicates solubility ≥ 1mg/ml) | SS (SS indicates solubility ≥ 1mg/ml) | SS (SS indicates solubility ≥ 1mg/ml) | SS (SS indicates solubility ≥ 1mg/ml) | SS (SS indicates solubility ≥ 1mg/ml) | SS (SS indicates solubility ≥ 1mg/ml) | SS (SS indicates solubility ≥ 1mg/ml) | 0.76 | 0.61
2 | CC[C@H](C)[C@@H](C(=O)N[C@@H](CC(C)C)C(=O)N[C@@H](CO)C(=O)N[C@@H](CO)C(=O)N[C@H](C(=O)N[C@@H](CCC(=O)O)C(=O)N[C@H](C(=O)NCC(=O)N[C@@H](CO)C(=O)N[C@@H](CCC(=O)O)C(=O)N[C@H](C(=O)N1CCC[C@H]1C(N)=O)[C@@H](C)O)C(C)C)[C@@H](C)O)N(C)C(=O)[C@H](C)NC(=O)CN(C)C(=O)[C@H](Cc1ccccc1)NC(=O)[C@H](CO)NC(=O)[C@H](CO)NC(=O)[C@H](CO)NC(=O)[C@H](CO)NC(=O)[C@H](CCCNC(=N)N)NC(=O)[C@H](Cc1c[nH]cn1)NC(=O)[C@H](CC(C)C)NC(=O)[C@H](Cc1ccccc1)NC(=O)[C@H](CCC(=O)O)NC(=O)[C@H](C)NC(=O)[C@H](CC(C)C)NC(=O)[C@H](CCCNC(=N)N)NC(=O)[C@H](CCC(=O)O)NC(=O)[C@@H](NC(=O)[C@H](C)NC(=O)[C@@H]1CSSC[C@H](NC(=O)[C@H](CCCNC(=N)N)NC(=O)CC[C@H](NC(=O)CCCCCCCCCCCCCCCCCCC(=O)O)C(=O)O)C(=O)N2CCC[C@H]2C(=O)N[C@@H]([C@@H](C)O)C(=O)N[C@@H](C)C(=O)N[C@@H]([C@@H](C)O)C(=O)N1)[C@@H](C)O [Compound 136, [19CD]-isoGlu-RC()PTATC()ATERLAEFLHRSSSSF-Gly(Me)-A-Ile(Me)-LSSTEVGSETP-NH2] ({C20 diacid-γGlu}-RCPTATCATERLAEFLHRSSSSF[Sar]A[NMeI]LSSTEVGSETP-NH2; disulfide 2-7) | SS (SS indicates solubility ≥ 1mg/ml) | SS (SS indicates solubility ≥ 1mg/ml) | SS (SS indicates solubility ≥ 1mg/ml) | SS (SS indicates solubility ≥ 1mg/ml) | SS (SS indicates solubility ≥ 1mg/ml) | SS (SS indicates solubility ≥ 1mg/ml) | SS (SS indicates solubility ≥ 1mg/ml) | 0.12 | 0.29
3 | CC[C@H](C)[C@@H](C(=O)N[C@@H](CC(C)C)C(=O)N[C@@H](CO)C(=O)N[C@@H](CO)C(=O)N[C@H](C(=O)N[C@@H](CCC(=O)O)C(=O)N[C@H](C(=O)NCC(=O)N[C@@H](CO)C(=O)N[C@@H](CCC(=O)O)C(=O)N[C@H](C(=O)N1CCC[C@H]1C(N)=O)[C@@H](C)O)C(C)C)[C@@H](C)O)N(C)C(=O)[C@H](C)NC(=O)CN(C)C(=O)[C@H](Cc1ccccc1)NC(=O)[C@H](CO)NC(=O)[C@H](CO)NC(=O)[C@H](CO)NC(=O)[C@H](CO)NC(=O)[C@H](CCCNC(=N)N)NC(=O)[C@H](Cc1c[nH]cn1)NC(=O)[C@H](CC(C)C)NC(=O)[C@H](Cc1ccccc1)NC(=O)[C@H](CCC(=O)O)NC(=O)[C@H](C)NC(=O)[C@H](CC(C)C)NC(=O)[C@H](CCCNC(=N)N)NC(=O)[C@H](CCC(=O)O)NC(=O)[C@@H](NC(=O)[C@H](C)NC(=O)[C@@H]1CSSC[C@H](NC(=O)[C@H](CCCNC(=N)N)NC(=O)CC[C@H](NC(=O)CCCCCCCCCCCCCCCCCCC(=O)O)C(=O)O)C(=O)N[C@@H](CC(=O)O)C(=O)N[C@@H]([C@@H](C)O)C(=O)N[C@@H](C)C(=O)N[C@@H]([C@@H](C)O)C(=O)N1)[C@@H](C)O [Compound 137, [19CD]-isoGlu-RC()DTATC()ATERLAEFLHRSSSSF-Gly(Me)-A-Ile(Me)-LSSTEVGSETP-NH2] ({C20 diacid-γGlu}-RCDTATCATERLAEFLHRSSSSF[Sar]A[NMeI]LSSTEVGSETP-NH2; disulfide 2-7) | SS (SS indicates solubility ≥ 1mg/ml) | SS (SS indicates solubility ≥ 1mg/ml) | SS (SS indicates solubility ≥ 1mg/ml) | SS (SS indicates solubility ≥ 1mg/ml) | SS (SS indicates solubility ≥ 1mg/ml) | SS (SS indicates solubility ≥ 1mg/ml) | SS (SS indicates solubility ≥ 1mg/ml) | 0.24 | 0.86
